In one assay the target is PI3K-γ (Homo sapiens, UniProt P48736). The experiment in a line: PI3K-gamma fluorescence polarization assay.
In another assay the target is Human mTOR (FLAG-TOR) (Homo sapiens, UniProt P42345). Description: mTOR kinase assay (DELFIA format, purified enzyme). The class given is biochemical. To be noted: read-out: IC50 mTOR.
The target in a further assay is PI3K-α (Homo sapiens, UniProt P42336). Description: PI3K-alpha fluorescence polarization assay. As to conditions: read-out: IC50 PI3Kα.
Assay [1] has as its system human prostate LNCap tumor cell line. Description: In vitro cell culture growth assay (MTS), LNCap. To be noted: Homo sapiens, LNCaP, 72 h, read-out: IC50 LNCap.

pIC50: −log10 of the molar value. Where two headings read alike, the source gives them in different places. A value given as a limit tells only on which side of the number the result lay.

PI3K-α, sequence (P42336 whole entry, species assumed): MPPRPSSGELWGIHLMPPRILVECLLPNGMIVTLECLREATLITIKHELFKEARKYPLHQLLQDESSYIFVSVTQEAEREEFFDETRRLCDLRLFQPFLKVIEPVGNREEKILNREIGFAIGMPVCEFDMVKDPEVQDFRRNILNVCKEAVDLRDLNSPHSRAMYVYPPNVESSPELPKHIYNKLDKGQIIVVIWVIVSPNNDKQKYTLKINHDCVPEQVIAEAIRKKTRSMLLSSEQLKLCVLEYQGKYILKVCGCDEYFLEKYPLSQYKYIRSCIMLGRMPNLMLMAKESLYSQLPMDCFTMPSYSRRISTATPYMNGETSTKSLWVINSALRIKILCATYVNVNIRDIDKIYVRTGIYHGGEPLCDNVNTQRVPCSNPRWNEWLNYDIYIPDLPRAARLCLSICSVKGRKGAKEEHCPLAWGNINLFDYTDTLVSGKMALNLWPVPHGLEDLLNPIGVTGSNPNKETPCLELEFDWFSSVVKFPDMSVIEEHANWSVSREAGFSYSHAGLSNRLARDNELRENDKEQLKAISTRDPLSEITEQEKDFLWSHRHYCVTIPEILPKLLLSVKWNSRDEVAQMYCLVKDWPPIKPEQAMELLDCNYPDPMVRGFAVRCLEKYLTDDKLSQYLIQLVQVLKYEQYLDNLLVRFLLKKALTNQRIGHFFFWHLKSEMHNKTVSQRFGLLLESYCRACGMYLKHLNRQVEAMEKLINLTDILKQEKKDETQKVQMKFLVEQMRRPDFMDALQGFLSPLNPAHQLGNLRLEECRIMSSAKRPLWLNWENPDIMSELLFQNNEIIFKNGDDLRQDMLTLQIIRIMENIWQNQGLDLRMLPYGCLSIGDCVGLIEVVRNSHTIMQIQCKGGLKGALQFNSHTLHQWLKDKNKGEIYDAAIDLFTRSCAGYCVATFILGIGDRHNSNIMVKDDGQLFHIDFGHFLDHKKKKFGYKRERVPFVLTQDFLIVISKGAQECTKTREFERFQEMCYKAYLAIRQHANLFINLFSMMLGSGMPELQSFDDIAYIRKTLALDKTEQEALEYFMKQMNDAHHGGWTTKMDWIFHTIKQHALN
PI3K-α, sequence (P27986 whole entry partner, species assumed): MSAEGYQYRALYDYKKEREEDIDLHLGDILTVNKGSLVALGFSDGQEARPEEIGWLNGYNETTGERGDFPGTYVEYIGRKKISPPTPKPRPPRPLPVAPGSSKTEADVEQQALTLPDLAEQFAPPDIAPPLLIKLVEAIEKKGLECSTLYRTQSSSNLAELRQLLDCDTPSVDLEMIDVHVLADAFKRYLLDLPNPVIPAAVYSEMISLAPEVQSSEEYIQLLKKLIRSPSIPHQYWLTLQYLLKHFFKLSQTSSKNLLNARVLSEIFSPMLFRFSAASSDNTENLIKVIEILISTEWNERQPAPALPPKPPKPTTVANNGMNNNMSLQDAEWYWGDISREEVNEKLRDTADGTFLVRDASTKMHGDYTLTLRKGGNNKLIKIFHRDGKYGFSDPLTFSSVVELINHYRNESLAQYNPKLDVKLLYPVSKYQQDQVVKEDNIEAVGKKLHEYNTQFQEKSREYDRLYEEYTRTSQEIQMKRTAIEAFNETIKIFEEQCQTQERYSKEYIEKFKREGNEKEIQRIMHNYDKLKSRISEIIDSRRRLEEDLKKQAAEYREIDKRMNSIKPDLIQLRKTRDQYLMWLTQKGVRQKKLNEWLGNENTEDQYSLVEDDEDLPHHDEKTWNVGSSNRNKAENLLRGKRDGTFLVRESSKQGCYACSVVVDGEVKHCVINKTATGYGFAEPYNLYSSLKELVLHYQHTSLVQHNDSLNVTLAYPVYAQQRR
PI3K-γ, sequence (P48736 whole entry, species assumed): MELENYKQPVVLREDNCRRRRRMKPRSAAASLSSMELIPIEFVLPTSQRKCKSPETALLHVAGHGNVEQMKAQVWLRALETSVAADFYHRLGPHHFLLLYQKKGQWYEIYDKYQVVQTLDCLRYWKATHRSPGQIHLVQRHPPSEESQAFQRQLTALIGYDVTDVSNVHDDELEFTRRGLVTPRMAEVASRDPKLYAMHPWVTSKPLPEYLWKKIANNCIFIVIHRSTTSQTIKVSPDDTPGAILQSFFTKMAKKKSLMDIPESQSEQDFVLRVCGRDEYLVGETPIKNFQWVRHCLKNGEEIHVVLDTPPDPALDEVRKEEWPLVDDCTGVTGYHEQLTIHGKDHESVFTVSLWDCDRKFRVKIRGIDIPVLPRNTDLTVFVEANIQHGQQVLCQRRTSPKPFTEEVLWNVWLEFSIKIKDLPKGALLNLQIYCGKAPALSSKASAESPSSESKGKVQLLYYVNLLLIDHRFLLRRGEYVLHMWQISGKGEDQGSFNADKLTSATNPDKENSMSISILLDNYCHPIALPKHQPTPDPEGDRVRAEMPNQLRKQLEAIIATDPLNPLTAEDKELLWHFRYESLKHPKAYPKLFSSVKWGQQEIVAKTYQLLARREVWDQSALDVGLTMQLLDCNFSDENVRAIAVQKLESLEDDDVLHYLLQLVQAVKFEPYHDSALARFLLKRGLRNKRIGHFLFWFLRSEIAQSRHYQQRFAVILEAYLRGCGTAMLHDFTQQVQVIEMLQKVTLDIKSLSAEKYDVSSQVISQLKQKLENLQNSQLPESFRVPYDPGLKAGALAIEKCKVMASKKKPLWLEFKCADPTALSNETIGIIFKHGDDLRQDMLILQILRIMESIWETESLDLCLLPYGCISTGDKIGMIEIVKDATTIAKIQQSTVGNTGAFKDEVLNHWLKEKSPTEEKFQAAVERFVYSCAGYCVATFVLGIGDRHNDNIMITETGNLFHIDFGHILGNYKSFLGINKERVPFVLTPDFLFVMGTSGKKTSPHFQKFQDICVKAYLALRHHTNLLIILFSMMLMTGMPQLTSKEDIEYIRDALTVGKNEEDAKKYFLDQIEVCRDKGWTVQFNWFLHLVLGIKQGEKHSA
Human mTOR (FLAG-TOR), sequence (P42345 1360-2549 limits assumed): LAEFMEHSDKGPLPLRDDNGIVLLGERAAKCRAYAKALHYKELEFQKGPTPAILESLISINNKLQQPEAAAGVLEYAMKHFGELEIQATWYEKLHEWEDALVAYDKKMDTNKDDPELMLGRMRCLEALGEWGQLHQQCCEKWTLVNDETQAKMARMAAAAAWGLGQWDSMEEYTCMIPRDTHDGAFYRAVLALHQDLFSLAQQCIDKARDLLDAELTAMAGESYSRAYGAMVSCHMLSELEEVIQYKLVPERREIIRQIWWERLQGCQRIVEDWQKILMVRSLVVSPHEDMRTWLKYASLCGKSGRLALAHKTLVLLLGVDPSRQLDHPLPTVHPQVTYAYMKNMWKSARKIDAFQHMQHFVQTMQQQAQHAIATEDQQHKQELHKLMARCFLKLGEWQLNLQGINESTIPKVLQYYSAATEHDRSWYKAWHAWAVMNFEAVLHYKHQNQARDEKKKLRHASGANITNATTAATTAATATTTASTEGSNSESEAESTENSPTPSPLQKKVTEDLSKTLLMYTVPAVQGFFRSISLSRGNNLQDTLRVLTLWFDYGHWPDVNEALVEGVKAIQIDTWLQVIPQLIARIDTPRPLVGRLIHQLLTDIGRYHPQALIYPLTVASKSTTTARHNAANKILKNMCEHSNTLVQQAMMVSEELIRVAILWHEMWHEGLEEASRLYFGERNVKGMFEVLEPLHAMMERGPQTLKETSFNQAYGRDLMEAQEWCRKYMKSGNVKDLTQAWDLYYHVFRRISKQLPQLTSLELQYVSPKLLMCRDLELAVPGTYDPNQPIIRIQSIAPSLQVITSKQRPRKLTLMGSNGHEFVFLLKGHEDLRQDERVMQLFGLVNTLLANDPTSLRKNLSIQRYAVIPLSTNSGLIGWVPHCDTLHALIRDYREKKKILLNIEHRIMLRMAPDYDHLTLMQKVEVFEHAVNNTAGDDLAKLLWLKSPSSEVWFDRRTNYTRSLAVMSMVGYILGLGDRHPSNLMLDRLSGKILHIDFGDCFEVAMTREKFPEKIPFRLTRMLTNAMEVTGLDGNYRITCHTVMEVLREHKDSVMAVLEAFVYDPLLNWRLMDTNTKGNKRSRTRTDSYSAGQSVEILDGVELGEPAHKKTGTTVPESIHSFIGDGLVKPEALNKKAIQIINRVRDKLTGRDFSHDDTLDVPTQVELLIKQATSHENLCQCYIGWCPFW

Take `CCNC(=O)Nc1ccc(-c2nc(N3CC4CCC(C3)O4)nc(N3CC4CCC(C3)O4)n2)cc1` [Example 29, 1-[4-(4,6-di-8-oxa-3-azabicyclo[3.2.1]oct-3-yl-1,3,5-triazin-2-yl)phenyl]-3-ethylurea]: the negative-log IC50 (pIC50) at PI3K-γ was below 5.00; on Human mTOR (FLAG-TOR), 8.55; at PI3K-α, 5.57; in assay [1], 6.74.

On to `O=C(Nc1ccc(-c2nc(N3CC4CCC(C3)O4)nc(N3CC4CCC(C3)O4)n2)cc1)NC1CC1` [Example 30, 1-cyclopropyl-3-[4-(4,6-di-8-oxa-3-azabicyclo[3.2.1]oct-3-yl-1,3,5-triazin-2-yl)phenyl]urea], for which the pIC50 at PI3K-γ is below 5.00; at Human mTOR (FLAG-TOR), 8.58; at PI3K-α it was 5.67; in assay [1], 7.05.

Consider `O=C(Nc1ccncc1)Nc1ccc(-c2nc(N3CC4CCC(C3)O4)nc(N3CC4CCC(C3)O4)n2)cc1` [Example 31, 1-[4-(4,6-di-8-oxa-3-azabicyclo[3.2.1]oct-3-yl-1,3,5-triazin-2-yl)phenyl]-3-pyridin-4-ylurea], for which the pIC50 at PI3K-γ (read-out: IC50 PI3Kγ) was 5.45; at Human mTOR (FLAG-TOR) it was 9.31; at PI3K-α, 6.85; in assay [1], 7.35.

As to `O=C(Nc1ccc(CO)cc1)Nc1ccc(-c2nc(N3CC4CCC(C3)O4)nc(N3CC4CCC(C3)O4)n2)cc1` [Example 32, 1-[4-(4,6-di-8-oxa-3-azabicyclo[3.2.1]oct-3-yl-1,3,5-triazin-2-yl)phenyl]-3-[4-(hydroxymethyl)phenyl]urea], the pIC50 on PI3K-γ (read-out: IC50 PI3Kγ) is 5.60; at Human mTOR (FLAG-TOR), 9.54; on PI3K-α it was 7.35; in assay [1] it was 9.15.

As for `CC(C)(C)OC(=O)N1CCN(c2nc(-c3ccc(NC(=O)Nc4ccncc4)cc3)nc(N3CC4CCC(C3)O4)n2)CC1` [Example 106, Tert-butyl 4-(4-(8-oxa-3-azabicyclo[3.2.1]octan-3-yl)-6-(4-(3-pyridin-4-ylureido)phenyl)-1,3,5-triazin-2-yl)piperazine-1-carboxylate], the pIC50 on PI3K-γ (read-out: IC50 PI3Kγ) was 5.74; at Human mTOR (FLAG-TOR), 8.12; on PI3K-α, 6.41; in assay [1] it was 6.43.

With `O=C(Nc1ccncc1)Nc1ccc(-c2nc(N3CCNCC3)nc(N3CC4CCC(C3)O4)n2)cc1` [Example 107, 1-(4-(4-(8-oxa-3-azabicyclo[3.2.1]octan-3-yl)-6-(piperazin-1-yl)-1,3,5-triazin-2-yl)phenyl)-3-(pyridin-4-yl)urea], the pIC50 at PI3K-γ (read-out: IC50 PI3Kγ) was 5.83; on Human mTOR (FLAG-TOR), 7.72; on PI3K-α, 6.94; in assay [1], 6.00.

`CN1CCN(c2nc(-c3ccc(NC(=O)Nc4ccncc4)cc3)nc(N3CC4CCC(C3)O4)n2)CC1` [Example 108, 1-{4-[4-(4-methylpiperazin-1-yl)-6-(8-oxa-3-azabicyclo[3.2.1]oct-3-yl)-1,3,5-triazin-2-yl]phenyl}-3-pyridin-4-ylurea]: the negative-log IC50 (pIC50) on PI3K-γ (read-out: IC50 PI3Kγ) is 5.38; at Human mTOR (FLAG-TOR) it was 7.72; at PI3K-α it was 6.23; in assay [1], 6.49.

As for `O=C(Nc1ccncc1)Nc1ccc(-c2nc(N3CCN(Cc4ccccc4)CC3)nc(N3CC4CCC(C3)O4)n2)cc1` [Example 109, 1-{4-[4-(4-benzylpiperazin-1-yl)-6-(8-oxa-3-azabicyclo[3.2.1]oct-3-yl)-1,3,5-triazin-2-yl]phenyl}-3-pyridin-4-ylurea], the pIC50 is 5.53 on PI3K-γ (read-out: IC50 PI3Kγ), 7.13 on Human mTOR (FLAG-TOR), 5.84 on PI3K-α and 5.72 in assay [1].

As to `O=C(Nc1ccncc1)Nc1ccc(-c2nc(N3CCN(Cc4cccnc4)CC3)nc(N3CC4CCC(C3)O4)n2)cc1` [Example 110, 1-(4-{4-(8-oxa-3-azabicyclo[3.2.1]oct-3-yl)-6-[4-(pyridin-3-ylmethyl)piperazin-1-yl]-1,3,5-triazin-2-yl}phenyl)-3-pyridin-4-ylurea], the negative-log IC50 (pIC50) was 5.45 on PI3K-γ (read-out: IC50 PI3Kγ), 7.54 at Human mTOR (FLAG-TOR), 6.05 at PI3K-α and 6.66 in assay [1].

On to `CC(=O)N1CCN(c2nc(-c3ccc(NC(=O)Nc4ccncc4)cc3)nc(N3CC4CCC(C3)O4)n2)CC1` [Example 111, 1-{4-[4-(4-acetylpiperazin-1-yl)-6-(8-oxa-3-azabicyclo[3.2.1]oct-3-yl)-1,3,5-triazin-2-yl]phenyl}-3-pyridin-4-ylurea], for which the pIC50 on PI3K-γ (read-out: IC50 PI3Kγ) was 5.74; on Human mTOR (FLAG-TOR) it was 8.64; on PI3K-α it was 6.94; in assay [1], 7.24.

On to `CN(C)CC(=O)N1CCN(c2nc(-c3ccc(NC(=O)Nc4ccncc4)cc3)nc(N3CC4CCC(C3)O4)n2)CC1` [Example 112, 1-(4-{4-[4-(N,N-dimethylglycyl)piperazin-1-yl]-6-(8-oxa-3-azabicyclo[3.2.1]oct-3-yl)-1,3,5-triazin-2-yl}phenyl)-3-pyridin-4-ylurea], for which the pIC50 on PI3K-γ (read-out: IC50 PI3Kγ) was 6.11; at Human mTOR (FLAG-TOR), 7.92; at PI3K-α, 6.31; in assay [1], 6.52.

On to `COC(=O)N1CCN(c2nc(-c3ccc(NC(=O)Nc4ccncc4)cc3)nc(N3CC4CCC(C3)O4)n2)CC1` [Example 114, Methyl 4-[4-(8-oxa-3-azabicyclo[3.2.1]oct-3-yl)-6-{4-[(pyridin-4-ylcarbamoyl)amino]phenyl}-1,3,5-triazin-2-yl]piperazine-1-carboxylate], for which the pIC50 was 5.93 on PI3K-γ (read-out: IC50 PI3Kγ), 8.50 at Human mTOR (FLAG-TOR), 6.97 at PI3K-α and 7.42 in assay [1].

Turning to `O=C1CCN(c2nc(-c3ccc(NC(=O)Nc4ccncc4)cc3)nc(N3CC4CCC(C3)O4)n2)CC1` [Example 115, 1-(4-(4-(8-oxa-3-azabicyclo[3.2.1]octan-3-yl)-6-(4-oxopiperidin-1-yl)-1,3,5-triazin-2-yl)phenyl)-3-(pyridin-4-yl)urea], the pIC50 on PI3K-γ (read-out: IC50 PI3Kγ) is 5.70; on Human mTOR (FLAG-TOR), 8.49; on PI3K-α it was 6.96; in assay [1], 6.70.

Turning to `O=C(Nc1ccncc1)Nc1ccc(-c2nc(N3CCC(O)CC3)nc(N3CC4CCC(C3)O4)n2)cc1` [Example 116, 1-{4-[4-(4-hydroxypiperidin-1-yl)-6-(8-oxa-3-azabicyclo[3.2.1]oct-3-yl)-1,3,5-triazin-2-yl]phenyl}-3-pyridin-4-ylurea], the negative logarithm of the IC50 (pIC50) on PI3K-γ (read-out: IC50 PI3Kγ) is 5.64; at Human mTOR (FLAG-TOR), 8.57; on PI3K-α it was 5.76; in assay [1], 7.15.

With `O=C(Nc1ccncc1)Nc1ccc(-c2nc(N3CCC(NCc4ccccc4)CC3)nc(N3CC4CCC(C3)O4)n2)cc1` [Example 117, 1-(4-{4-[4-(benzylamino)piperidin-1-yl]-6-(8-oxa-3-azabicyclo[3.2.1]oct-3-yl)-1,3,5-triazin-2-yl}phenyl)-3-pyridin-4-ylurea], the pIC50 on PI3K-γ (read-out: IC50 PI3Kγ) is 5.52; on Human mTOR (FLAG-TOR) it was 7.08; at PI3K-α it was 6.75; in assay [1], 6.15.

Regarding `CNC1CCN(c2nc(-c3ccc(NC(=O)Nc4ccncc4)cc3)nc(N3CC4CCC(C3)O4)n2)CC1` [Example 118, 1-(4-{4-[4-(methylamino)piperidin-1-yl]-6-(8-oxa-3-azabicyclo[3.2.1]oct-3-yl)-1,3,5-triazin-2-yl}phenyl)-3-pyridin-4-ylurea], the pIC50 on PI3K-γ (read-out: IC50 PI3Kγ) was 6.53; at Human mTOR (FLAG-TOR), 6.71; on PI3K-α, 6.42; in assay [1], 5.52.

Turning to `CCNC1CCN(c2nc(-c3ccc(NC(=O)Nc4ccncc4)cc3)nc(N3CC4CCC(C3)O4)n2)CC1` [Example 119, 1-(4-{4-[4-(ethylamino)piperidin-1-yl]-6-(8-oxa-3-azabicyclo[3.2.1]oct-3-yl)-1,3,5-triazin-2-yl}phenyl)-3-pyridin-4-ylurea], the pIC50 at PI3K-γ (read-out: IC50 PI3Kγ) was 5.12; at Human mTOR (FLAG-TOR), 6.85; on PI3K-α, 5.91; in assay [1], 5.55.

`CN(C)CCNC1CCN(c2nc(-c3ccc(NC(=O)Nc4ccncc4)cc3)nc(N3CC4CCC(C3)O4)n2)CC1` [Example 120, 1-{4-[4-(4-{[2-(dimethylamino)ethyl]amino}piperidin-1-yl)-6-(8-oxa-3-azabicyclo[3.2.1]oct-3-yl)-1,3,5-triazin-2-yl]phenyl}-3-pyridin-4-ylurea]: the pIC50 on PI3K-γ (read-out: IC50 PI3Kγ) is 5.81; at Human mTOR (FLAG-TOR), 7.10; at PI3K-α it was 6.58; in assay [1], 5.92.

Consider `CN1CCN(C2CCN(c3nc(-c4ccc(NC(=O)Nc5ccncc5)cc4)nc(N4CC5CCC(C4)O5)n3)CC2)CC1` [Example 122, 1-(4-(4-(8-oxa-3-azabicyclo[3.2.1]octan-3-yl)-6-(4-(4-methylpiperazin-1-yl)piperidin-1-yl)-1,3,5-triazin-2-yl)phenyl)-3-(pyridin-4-yl)urea], for which the negative logarithm of the IC50 (pIC50) on PI3K-γ (read-out: IC50 PI3Kγ) was 5.02; at Human mTOR (FLAG-TOR) it was 7.13; on PI3K-α, 5.94; in assay [1], 6.05.

Regarding `O=C(Nc1ccncc1)Nc1ccc(-c2nc(N3CCC(NCCO)CC3)nc(N3CC4CCC(C3)O4)n2)cc1` [Example 123, 1-(4-(4-(8-oxa-3-azabicyclo[3.2.1]octan-3-yl)-6-(4-(2-hydroxyethylamino)piperidin-1-yl)-1,3,5-triazin-2-yl)phenyl)-3-(pyridin-4-yl)urea], the pIC50 on PI3K-γ (read-out: IC50 PI3Kγ) is 5.20; at Human mTOR (FLAG-TOR) it was 6.94; at PI3K-α, 6.12; in assay [1], 5.39.

As to `O=C(Nc1ccncc1)Nc1ccc(-c2nc(N3CCC(NCCN4CCOCC4)CC3)nc(N3CC4CCC(C3)O4)n2)cc1` [Example 124, 1-(4-(4-(8-oxa-3-azabicyclo[3.2.1]octan-3-yl)-6-(4-(2-morpholinoethylamino)piperidin-1-yl)-1,3,5-triazin-2-yl)phenyl)-3-(pyridin-4-yl)urea], the negative-log IC50 (pIC50) on PI3K-γ (read-out: IC50 PI3Kγ) is 5.02; at Human mTOR (FLAG-TOR), 6.81; at PI3K-α it was 5.78; in assay [1], 5.71.

Source of the values: patent US20090304692A1, “TRIAZINE COMPOUNDS AS PI3 KINASE AND MTOR INHIBITORS” (Wyeth, priority 2008, published 2009).
